Measured values: patent US10988524B2, “Modified relaxin B chain peptides and their therapeutic use” (priority 2018, dated 2021)
Non-standard residues stand in square brackets, D forms with d. Residues, ends and D or L forms follow the SMILES beside them. 1Nal = N[C@@H](Cc1cccc2ccccc12)C(=O)O; αMeS = C[C@](N)(CO)C(=O)O; Nle = CCCC[C@H](N)C(=O)O; Aib = CC(C)(N)C(=O)O

Experiments:
[1] = Stability in human plasma; type: in vitro ADME; conditions: 37° C., 5 μM, T = 0
Protocol: (§1) Prior to the testing of stability in plasma of a peptide batch, its purity (HPLC-UV) was determined.
(§2) Rat and Human plasma: anti-coagulant sodium or lithium heparin.
(§3) 100 μM solution of study compound in 50 mM Phosphate buffer pH 7.4.
(§4) 950 μL plasma is pre-incubated for 5 min at 37° C. 50 μL of compound stock solution is added. Final compound concentration=5 μM. Vortex and transfer 1504, plasma into an Eppendorf for each time point. The time points 0-1 and −4 h are carried out in duplicate for each species.
(§5) After incubation extract 1504, plasma with 6004, Acetonitrile containing with 1% TFA. Vortex and centrifuge 10 min at 14600 rpm. Dry 2004, supernatant under N2. Reconstitute sample in 200 μL of H2O/CH3CN 98/2+0.1% FA+50 ng/ml Labetalol and analyze using the analytical system used in solubility and stability studies.
(§6) For determination of the amount of the remaining peptide, the peak areas of the target compound at t0 and each time point […] were compared, resulting in “% remaining peptide”, following the equation
(§7) % remaining peptide=[(peak area peptide time)×100]/peak area peptide t0. The stability is expressed as “% remaining peptide”.

Stability in rat plasma = type: in vitro ADME; conditions: 37° C., 5 μM, T = 0
Protocol: as §1, §2, §3, §4, §5, §6, §7

RXFP1 = biological target: T1, RXFP1 (Homo sapiens, UniProt Q9HBX9); experiment: OVCAR5 cAMP assay (RXFP1 agonist activity, HTRF); conditions: for Emax: OVCAR-5, read-out: cAMP assay in OVCAR 5 cells Emax, maximal intracellular cAMP relative to H2-relaxin in the same test occasion
T1 sequence (Q9HBX9 1-757): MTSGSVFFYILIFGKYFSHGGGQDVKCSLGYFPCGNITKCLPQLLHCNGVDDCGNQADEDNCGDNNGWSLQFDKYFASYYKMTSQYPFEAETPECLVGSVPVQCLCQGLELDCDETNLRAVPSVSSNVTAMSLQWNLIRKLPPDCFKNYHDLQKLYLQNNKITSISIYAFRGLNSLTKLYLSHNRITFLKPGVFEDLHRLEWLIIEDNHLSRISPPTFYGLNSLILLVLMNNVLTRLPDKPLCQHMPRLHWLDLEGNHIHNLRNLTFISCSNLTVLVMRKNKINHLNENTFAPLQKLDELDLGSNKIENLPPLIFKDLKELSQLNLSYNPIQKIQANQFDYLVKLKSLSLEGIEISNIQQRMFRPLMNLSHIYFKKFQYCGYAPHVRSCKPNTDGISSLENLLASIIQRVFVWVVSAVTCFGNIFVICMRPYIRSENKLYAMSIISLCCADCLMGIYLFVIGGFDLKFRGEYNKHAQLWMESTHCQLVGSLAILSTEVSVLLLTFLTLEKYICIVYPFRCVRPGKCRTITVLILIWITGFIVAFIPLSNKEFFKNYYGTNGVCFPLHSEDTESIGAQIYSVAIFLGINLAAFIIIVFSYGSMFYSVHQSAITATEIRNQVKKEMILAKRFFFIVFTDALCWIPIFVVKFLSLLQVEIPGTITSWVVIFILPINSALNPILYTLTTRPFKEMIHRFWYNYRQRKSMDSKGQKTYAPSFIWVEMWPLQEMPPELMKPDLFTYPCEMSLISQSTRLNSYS

Compound | Emax (RXFP1) | also measured
Ac-VIKLSGRELVRAQIAISGMSTWSKKKK-NH2 [KKKK(AcB7-29 C11.23S), reference compound] | – | Human Plasma stability % remaining, T = 0 [1]: 100%; Rat plasma stability % remaining, T = 0 (Stability in rat plasma): 100%
H-VIKLSGRELVRAQIAISGMSTWSKRSL-NH2 [B7-33 C11.23S, reference compound] | – | Human Plasma stability % remaining, T = 0 [1]: 100%; Rat plasma stability % remaining, T = 0 (Stability in rat plasma): 100%
Ac-VIKLSGRELVRAQIAISGMSTWSKRSL-NH2 [AcB7-33 C11.23S, reference compound] | – | Human Plasma stability % remaining, T = 0 [1]: 100%; Rat plasma stability % remaining, T = 0 (Stability in rat plasma): 100%
CCCC[C@H](NC(=O)CNC(=O)[C@H](CCC(=O)O)NC(=O)C(C)(C)NC(=O)C(C)(C)NC(=O)[C@@H](NC(=O)[C@H](CCCCNC(C)=O)NC(=O)[C@H](C)NC(=O)[C@H](CCCNC(=N)N)NC(=O)[C@@H](NC(=O)[C@H](CCCCN)NC(=O)[C@H](CCC(=O)O)NC(=O)[C@H](CCCNC(=N)N)NC(=O)CNC(=O)[C@H](CCC(=O)O)NC(=O)[C@H](CC(C)C)NC(C)=O)C(C)C)[C@@H](C)CC)C(=O)N[C@@H](CO)C(=O)N[C@H](C(=O)N[C@@H](Cc1cccc2ccccc12)C(=O)N[C@@H](CO)C(=O)NC(C)(C)C(=O)N[C@@H](CCCNC(=N)N)C(=O)N[C@@H](CCCCN)C(=O)N[C@@H](CCCCNC(C)=O)C(N)=O)[C@@H](C)O [compound 29] (Ac-LEGREKVRAK(Ac)I[Aib][Aib]EG[Nle]ST[1Nal]S[Aib]RKK(Ac)-NH2) | 98% | –
CCCC[C@H](NC(=O)CNC(=O)[C@H](CCC(=O)O)NC(=O)C(C)(C)NC(=O)C(C)(C)NC(=O)[C@@H](NC(=O)[C@H](CCC(N)=O)NC(=O)[C@H](C)NC(=O)[C@H](CCCNC(=N)N)NC(=O)[C@@H](NC(=O)[C@H](CCCCN)NC(=O)[C@H](CCC(=O)O)NC(=O)[C@H](CCCNC(=N)N)NC(=O)CNC(=O)[C@H](CCC(=O)O)NC(=O)[C@H](CC(C)C)NC(C)=O)C(C)C)[C@@H](C)CC)C(=O)N[C@@H](CO)C(=O)N[C@H](C(=O)N[C@@H](Cc1c[nH]c2ccccc12)C(=O)N[C@H](C(=O)NC(C)(C)C(=O)N[C@@H](CCCNC(=N)N)C(=O)N[C@@H](CCCCN)C(=O)N[C@@H](CCCCN)C(N)=O)[C@@H](C)O)[C@@H](C)O [compound 23] (Ac-LEGREKVRAQI[Aib][Aib]EG[Nle]STWT[Aib]RKK-NH2) | 95% | –
CCCC[C@H](NC(=O)CNC(=O)[C@H](CCC(=O)O)NC(=O)C(C)(C)NC(=O)C(C)(C)NC(=O)[C@@H](NC(=O)[C@H](CCCCNC(C)=O)NC(=O)[C@H](C)NC(=O)[C@H](CCCNC(=N)N)NC(=O)[C@@H](NC(=O)[C@H](CCCCN)NC(=O)[C@H](CCC(=O)O)NC(=O)[C@H](CCCNC(=N)N)NC(=O)CNC(=O)[C@H](CCC(=O)O)NC(=O)[C@H](CC(C)C)NC(C)=O)C(C)C)[C@@H](C)CC)C(=O)N[C@@H](CO)C(=O)N[C@H](C(=O)N[C@@H](Cc1c[nH]c2ccccc12)C(=O)N[C@@H](CO)C(=O)NC(C)(C)C(=O)N[C@@H](CCCNC(=N)N)C(=O)N[C@@H](CCCCN)C(=O)N[C@@H](CCCCN)C(N)=O)[C@@H](C)O [compound 24] (Ac-LEGREKVRAK(Ac)I[Aib][Aib]EG[Nle]STWS[Aib]RKK-NH2) | 92% | –
CC[C@H](C)[C@H](NC(=O)[C@H](CCC(N)=O)NC(=O)[C@H](C)NC(=O)[C@H](CCCNC(=N)N)NC(=O)[C@@H](NC(=O)[C@H](CCCCN)NC(=O)[C@H](CCC(=O)O)NC(=O)[C@H](CCCNC(=N)N)NC(=O)CNC(=O)[C@H](CCC(=O)O)NC(=O)[C@H](CC(C)C)NC(C)=O)C(C)C)C(=O)NC(C)(C)C(=O)NC(C)(C)C(=O)N[C@@H](CCC(=O)O)C(=O)NCC(=O)N[C@@H](CCSC)C(=O)N[C@@H](CO)C(=O)N[C@@](C)(CO)C(=O)N[C@@H](Cc1c[nH]c2ccccc12)C(=O)N[C@@H](CO)C(=O)N[C@@H](CCCCN)C(=O)N[C@@H](CCCNC(=N)N)C(N)=O [compound 39] (Ac-LEGREKVRAQI[Aib][Aib]EGMS[αMeS]WSKR-NH2) | 99% | EC50 (RXFP1; cAMP assay in OVCAR 5 cells EC50 (nM), OVCAR5 cells expressing endogenous RXFP1, cAMP by HTRF, 30 min at 37° C., 1 mM IBMX): 9.5 nM
CC[C@H](C)[C@H](NC(=O)[C@H](CCC(N)=O)NC(=O)[C@H](C)NC(=O)[C@H](CCCNC(=N)N)NC(=O)[C@@H](NC(=O)[C@H](CCCCN)NC(=O)[C@H](CCC(=O)O)NC(=O)[C@H](CCCNC(=N)N)NC(=O)CNC(=O)[C@H](CCC(=O)O)NC(=O)[C@H](CC(C)C)NC(C)=O)C(C)C)C(=O)NC(C)(C)C(=O)NC(C)(C)C(=O)N[C@@H](CCC(=O)O)C(=O)NCC(=O)N[C@@H](CCSC)C(=O)N[C@@H](CO)C(=O)N[C@H](C(=O)N[C@@H](Cc1c[nH]c2ccccc12)C(=O)N[C@@H](CO)C(=O)N[C@@H](CCCCN)C(=O)N[C@@H](CCCNC(=N)N)C(N)=O)[C@@H](C)O [compound 40] (Ac-LEGREKVRAQI[Aib][Aib]EGMSTWSKR-NH2) | 103% | –
CCCC[C@H](NC(=O)CNC(=O)[C@H](CCC(=O)O)NC(=O)C(C)(C)NC(=O)C(C)(C)NC(=O)[C@@H](NC(=O)[C@H](CCC(N)=O)NC(=O)[C@H](C)NC(=O)[C@H](CCCNC(=N)N)NC(=O)[C@@H](NC(=O)[C@H](CCCCN)NC(=O)[C@H](CCC(=O)O)NC(=O)[C@H](CCCNC(=N)N)NC(=O)CNC(=O)[C@H](CCC(=O)O)NC(=O)[C@H](CC(C)C)NC(C)=O)C(C)C)[C@@H](C)CC)C(=O)N[C@@H](CO)C(=O)N[C@H](C(=O)N[C@@H](Cc1c[nH]c2ccccc12)C(=O)N[C@@H](CO)C(=O)NC(C)(C)C(=O)N[C@@H](CCCNC(=N)N)C(=O)N[C@@H](CCCCN)C(N)=O)[C@@H](C)O [compound 44] (Ac-LEGREKVRAQI[Aib][Aib]EG[Nle]STWS[Aib]RK-NH2) | 101% | –
CC[C@H](C)[C@H](NC(=O)[C@H](CCC(N)=O)NC(=O)[C@H](C)NC(=O)[C@H](CCCNC(=N)N)NC(=O)[C@@H](NC(=O)[C@H](CCCCN)NC(=O)[C@H](CCC(=O)O)NC(=O)[C@H](CCCNC(=N)N)NC(=O)CNC(=O)[C@H](CCC(=O)O)NC(=O)[C@H](CC(C)C)NC(C)=O)C(C)C)C(=O)NC(C)(C)C(=O)N[C@H](C(=O)N[C@@H](CCC(=O)O)C(=O)NCC(=O)N[C@@H](CCSC)C(=O)N[C@@H](CO)C(=O)N[C@@H](CCCCN)C(=O)N[C@@H](Cc1cccc2ccccc12)C(=O)N[C@@H](CO)C(=O)N[C@@H](CCCCN)C(=O)N[C@@H](CCCNC(=N)N)C(=O)N[C@@H](CCCCN)C(=O)N[C@@H](CCCCN)C(N)=O)[C@@H](C)CC [compound 9] (Ac-LEGREKVRAQI[Aib]IEGMSK[1Nal]SKRKK-NH2) | 100% | –
CCCC[C@H](NC(=O)CNC(=O)[C@H](CCC(=O)O)NC(=O)C(C)(C)NC(=O)C(C)(C)NC(=O)[C@@H](NC(=O)[C@H](CCCCNC(C)=O)NC(=O)[C@H](C)NC(=O)[C@H](CCCNC(=N)N)NC(=O)[C@@H](NC(=O)[C@H](CCCCN)NC(=O)[C@H](CCC(=O)O)NC(=O)[C@H](CCCNC(=N)N)NC(=O)CNC(=O)[C@H](CCC(=O)O)NC(=O)[C@H](CC(C)C)NC(C)=O)C(C)C)[C@@H](C)CC)C(=O)N[C@@H](CO)C(=O)N[C@H](C(=O)N[C@@H](Cc1c[nH]c2ccccc12)C(=O)N[C@@H](CO)C(=O)NC(C)(C)C(=O)N[C@@H](CCCNC(=N)N)C(=O)N[C@@H](CCCCN)C(N)=O)[C@@H](C)O [compound 47] (Ac-LEGREKVRAK(Ac)I[Aib][Aib]EG[Nle]STWS[Aib]RK-NH2) | 94% | –
